Test results reported in patent US12384825B2, “Monomeric peptide multi-agonist targeting the GLP1 receptor and NPY receptors” (Syracuse University, priority 2019, dated 2025).
Entries after “also recorded” stand apart in the source; their conditions may differ. Where no end group is shown, it is not given here. [ ]: non-standard residue; d: D form. Lys(N3) = [N-]=[N+]=NCCCC[C@H](N)C(=O)O

Assays:
human NPY1-R = molecular target: T1, human NPY1-R (Homo sapiens, UniProt P25929); test: FRET assay at Y1-R, mitigation of adenosine stimulated cAMP at the A2b receptor (EPAC2/H188, HEK293); assay type: cell-based; conditions: cells expressing Y1-R, partial antagonist
T1 construct: host or cells: HEK293 (H188 FRET reporter)
T1 sequence (P25929 1-384): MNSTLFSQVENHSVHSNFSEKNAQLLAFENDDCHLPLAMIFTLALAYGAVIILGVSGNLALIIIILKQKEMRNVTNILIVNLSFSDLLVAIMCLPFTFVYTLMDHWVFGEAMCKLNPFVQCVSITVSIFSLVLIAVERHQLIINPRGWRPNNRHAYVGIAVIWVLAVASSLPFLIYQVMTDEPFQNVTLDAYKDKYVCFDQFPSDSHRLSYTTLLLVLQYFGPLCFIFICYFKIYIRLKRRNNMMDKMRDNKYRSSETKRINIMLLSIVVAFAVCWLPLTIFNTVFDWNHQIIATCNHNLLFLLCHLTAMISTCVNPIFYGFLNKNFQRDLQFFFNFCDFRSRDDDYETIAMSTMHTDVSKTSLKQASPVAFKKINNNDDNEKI

human NPY2-R = molecular target: T2, human NPY2-R (Homo sapiens, UniProt P49146); test: FRET assay at Y2-R, mitigation of adenosine stimulated cAMP at the A2b receptor (EPAC2/H188, HEK293); assay type: cell-based
T2 construct: host or cells: HEK293 (H188 FRET reporter)
T2 sequence (P49146 1-381): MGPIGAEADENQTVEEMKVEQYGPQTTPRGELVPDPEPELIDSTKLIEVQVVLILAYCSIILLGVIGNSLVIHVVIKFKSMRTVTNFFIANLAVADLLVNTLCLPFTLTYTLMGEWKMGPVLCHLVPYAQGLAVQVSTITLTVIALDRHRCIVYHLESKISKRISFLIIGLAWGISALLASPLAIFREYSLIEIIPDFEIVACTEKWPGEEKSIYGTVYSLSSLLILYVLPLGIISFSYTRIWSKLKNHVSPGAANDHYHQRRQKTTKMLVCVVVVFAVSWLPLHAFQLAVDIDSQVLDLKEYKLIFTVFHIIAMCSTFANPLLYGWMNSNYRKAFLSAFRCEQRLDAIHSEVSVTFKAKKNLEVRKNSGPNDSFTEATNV

rat pancreatic islets = test: Static glucose stimulated insulin secretion (GSIS) in rat islets; assay type: cell-based; conditions: 10 mM glucose, 50 nM peptides
Method: Rat islet isolation and culture. Islets were harvested from Sprague-Dawley rats (approximately 250 g; Charles River) and anesthetized by intraperitoneal injection of pentobarbital sodium (150 mg/kg rat). Islets were prepared and purified as described^56. Islets were then cultured for 18 h in a 37° C., 5% CO2 incubator prior to the experiments in RPMI medium supplemented with 10% heat inactivated fetal bovine serum (Invitrogen). Static measurement of ISR. ISR was determined statically with multiple conditions, as described previously^57. Briefly, islets were handpicked into a petri dish containing KRB, 0.1% BSA, and 3 mM glucose and incubated at 37° C., 5% CO2 for 60 min. Subsequently, islets were picked into wells of 96-well plates containing desired amounts of glucose and agents as indicated and incubated for an additional 60 min. At the end of this period, supernatant was assayed for insulin.

human GLP-1R = human GLP-1R (Homo sapiens, UniProt P43220); test: FRET reporter assay tracking cAMP stimulation at the GLP-1R (EPAC2/H188 sensor, HEK293 cells); assay type: cell-based; conditions: FIG. 7
[1] = 5-day treatment in diet-induced obese (DIO) rats; assay type: in vivo, rat; conditions: diet-induced obese Sprague-Dawley rats, 10 nmol/kg once daily, 5 d
Text: Diet Induced Obese (DIO) rats. To generate DIO rats, young (4-wk of age) lean male Sprague Dawley rats (Charles River Laboratories, Inc. Wilmington, MA; strain code 001) were placed on a high fat diet (HFD; D12492, 60% kcal from fat, Research Diets, New Brunswick, NJ) for 4-5 months prior to the start of the experiments to attain >20% of body fat. During this time, animals had ad libitum access to food and water.
5-day Treatment in DIO rats. DIO Sprague Dawley rats (2 cohorts; 826.1 g n=9, and 642.3 g n=5) were individually housed and the animal room was maintained on a 12-h light/12-hour dark cycle. During the 5-day baseline phase, animals were administered vehicle (0.9% sterile saline solution, injectable) injections just prior to the start of the dark cycle. At the end of the baseline phase, animals were grouped based on body weight, average daily body weight gain, and food intake. […] Throughout the experiment, body weight and food intake (via hopper weighs) were assessed daily just prior to the start of the dark cycle. Fasting blood glucose was tested prior to the baseline phase and at the end of the treatment phase via handheld glucometer (One Tough Ultra).

[2] = Dose escalation study, food intake in rats; assay type: in vivo, rat
Method: Dose Escalation Study. Lean Sprague Dawley rats (350 g) were individually housed in cages capable of recording food intake (Accuscan Diet cages). The animal room was maintained on a 12-h light/12-hour dark cycle. The study design consisted of sequential rounds of a 2-day baseline phase, a 2-day treatment phase, and a 2-day washout phase. Body weight was assessed daily just prior to the start of the dark cycle, food and kaolin intake were available ad libitum and consumption was continuously recorded. Treatment doses were administered just prior to the start of the dark cycle via subcutaneous injection.

rat islets = test: Insulin secretion rate in rat islet cell perifusion, exposure and washout; assay type: cell-based
human islets = test: Insulin release in human islets; assay type: cell-based
[3] = Intraperitoneal glucose tolerance testing after 5-d treatment in rats; assay type: in vivo, rat; conditions: 10 nmol/kg, pre-diabetic (DIO) rats
Method: DIO Sprague Dawley rats (803.0±102.7 g n=7) were administered a pre-treatment IPGTT with a vehicle injection. Animals were grouped based on body weight, Lee Index (a measure of adiposity; lee index=weight1/3/nasoanal length), and baseline IPGTT blood glucose excursion. […] On treatment day 5, a repeat IPGTT was performed with the assigned treatment. All weights noted are mean±Std. Dev. Metabolic testing. Intraperitoneal glucose tolerance testing (IPGTT) was performed following a 6-h fast such that the glucose bolus occurred at the start of the dark cycle; all animal handling is performed under red light. […] A second baseline sample was obtained 30 minutes later, immediately prior to the dextrose bolus (1.5 g/kg dextrose, 20% solution). Additional blood glucose measurements were taken 7, 15, 30, 45, 60, and 120 minutes post-bolus. All blood glucose measurements were made via handheld glucometers (One Touch Ultra) in duplicate; if the variation between the two measures was >5%, a third measurement was taken.

[4] = system: perifused isolated rat islets; test: Cytokine-induced damage of perifused isolated rat islets (OCR, membrane permeability); assay type: cell-based; conditions: cytokines IFN-γ, TNF-α, IL-1β
Text: For this evaluation, a customized perifusion system was used that both maintains islet health while continuously assessing β-cell viability by OCR.

IPGTT in shrews = assay type: in vivo, shrew

Chain of human GLP-1R (P43220 24-463): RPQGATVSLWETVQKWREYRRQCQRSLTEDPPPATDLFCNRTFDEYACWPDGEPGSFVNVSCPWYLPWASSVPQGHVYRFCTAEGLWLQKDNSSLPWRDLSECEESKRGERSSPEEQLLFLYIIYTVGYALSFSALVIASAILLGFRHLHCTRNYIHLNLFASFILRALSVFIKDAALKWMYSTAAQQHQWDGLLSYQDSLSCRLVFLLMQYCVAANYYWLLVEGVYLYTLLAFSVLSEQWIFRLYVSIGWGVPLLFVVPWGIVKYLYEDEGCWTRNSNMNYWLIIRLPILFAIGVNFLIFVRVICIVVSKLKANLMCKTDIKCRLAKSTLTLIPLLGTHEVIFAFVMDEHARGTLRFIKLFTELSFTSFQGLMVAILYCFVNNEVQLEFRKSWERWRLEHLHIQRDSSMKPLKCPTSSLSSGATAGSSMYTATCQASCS

N=C(N)NCCC[C@H](NC(=O)CC1(CC(=O)N2CCN(C3c4ccccc4NC(=O)c4ccccc43)CC2)CCCC1)C(=O)NCCn1c(=O)n(-c2ccccc2)n(-c2ccccc2)c1=O (stereo partly shown) [BIIE0246, reference compound]
block of GEP44 agonism by antagonist at Y1-R (human NPY1-R): blocked GEP44 agonism | block of GEP44 agonism by antagonist at Y2-R (human NPY2-R; FRET, cells expressing Y2-R, potent antagonist): blocked GEP44 agonism

H[dS]QGTFTSDLS[Lys(N3)]YLEEEAVREFIAWLKNGGPSRHYLNLVTRQRY-NH2 [GEP44]
glucose stimulated insulin secretion (GSIS), as ISR (rat pancreatic islets): stimulated GSIS; also recorded: significantly increased | signalling via the GLP-1R, cAMP production (human GLP-1R): stimulate cAMP production | body weight [1]: sustained weight loss | fasting blood glucose [1]: reduced fasting blood glucose; also recorded: significant reduction in fasting blood glucose | food intake [1]: reduced food intake | 2-d avg. FI ([2]; 10 nmol/kg/d, rats): −58% | reduction in food intake over 2 days ([2]; 20 nmol/kg daily, lean Sprague-Dawley rats): −81.4% | 2-d avg. FI ([2]; 30 nmol/kg/d, rats): −84% | reductions in FI ([2]; preliminary dose escalation studies, dose not stated): > 88% | food intake (in words) ([2]; rats, dose escalation, 2-d on each dose): robust reduction of FI; also recorded: robust reduction of food intake | insulin secretion rate (ISR) (rat islets; acute exposure): significantly increased | persistence of the effect on insulin secretion after washout (rat islets; exposure and washout): more sustained vs. Ex-4 | insulin release in human islets (human islets): capable of stimulating insulin release | signalling via the Y2-R, cAMP production (human NPY2-R; FIG. 7): stimulate cAMP production | blood glucose during intraperitoneal glucose tolerance testing, GEP44 vs Ex4 [3]: stronger reductions in blood glucose | fall in cytokine-induced OCR [4]: slowed the fall in cytokine-induced OCR | glucoregulation (IPGTT) (IPGTT in shrews): confirmed glucoregulation
